# Results as given in paper PMC8568920, “Serum apolipoprotein A-I potentiates the therapeutic efficacy of lysocin E against Staphylococcus aureus” (Nature Communications, 2021).
# Read-outs that look alike come from different tables or passages of the source.
# How the values were obtained:
# MRSA MR6 strain = assay: Mouse systemic MRSA infection model, survival ED50; assay type: in vivo; conditions: ICR female mice; MRSA MR6 i.p. 5.7 × 10^7 CFU in mucin; s.c. at 1 h and 6 h after infection; survival after 5 days; 5 animals/group; logistic regression
# Experimental: Mouse protocols followed the Regulations for Animal Care and Use of the University of Tokyo under approval by the Graduate School of Pharmaceutical Science at the University of Tokyo (approval nos. 24–55). Mice were housed in a group of at most five in a cage, kept in a room maintained at 23–24 °C, 55% humidity, and 12 h light/12 h dark cycle. For Table 1, clinically isolated MRSA MR6 strain[47] was cultured overnight, suspended in 7% type II porcine stomach mucin supplemented with 0.2 mM FeNH4-citrate and intraperitoneally administered to mice (ICR, female, 4 weeks of age) at 5.7 × 10^7 colony-forming units. Lysocin E (4–0.25 mg kg^−1), vancomycin (8–0.5 mg kg^−1), linezolid (8–0.5 mg kg^−1), or daptomycin (4–0.25 mg kg^−1) were administered subcutaneously to 5 animals/group at 1 h and 6 h after infection. Mouse survival was assessed after 5 days and ED50 values were calculated by multiple logistic regression analysis. For Fig. 1d, the Newman strain was cultured in TSB overnight and cells (4.0 × 10^7 colony-forming units) were washed in phosphate-buffered saline (PBS) were injected into the tail vein of 8–12-week-old female C57BL/6J wild-type mice or Apoa1 homozygous-deficient mice. After 2 h, lysocin E (0.5 mg kg^−1) was administered subcutaneously. After 24 h, the kidneys were harvested and crushed with a BioMasher II (Nippi Incorporated, Tokyo, Japan). The suspensions were diluted with PBS(−), plated on TSB agar medium and the number of colonies was counted.
# S. aureus RN4220 [1] = conditions: for MIC, Control / MIC +rhApoA-I relative to control (fold) / MIC, +rhApoA-I 25µg ml-1: RN4220; for MIC, Control: no rhApoA-I; for MIC +rhApoA-I relative to control (fold) / MIC, +rhApoA-I 25µg ml-1: rhApoA-I 25 µg ml-1
# Experimental: (§1) The antimicrobial activities of the compounds were measured using the microdilution method. Measurement of the bactericidal activity of lysocin E (0.25 µg ml^−1) and nisin (2 µg ml^−1) with or without ApoA-I was performed according to the National Committee for Clinical Laboratory Standards method. […] For the ∆menA and ∆menB strains, TSB medium was used instead of cation-adjusted-Mueller Hinton broth (CA-MHB) in the microdilution method. Sera and ApoA-I, II were added to the bacterial culture before distributing them into 96-well plates. ApoA-I and ApoA-II antimicrobial activity were evaluated using the RN4220 strain. The protein binding rate of lysocin E against human plasma was determined by a rapid equilibrium dialysis device (Thermo Fisher Scientific, Waltham, MA, USA) according to the manufacturer’s instructions.
# [2] = cited from earlier work
# MRSA = assay: microbe, parasite or virus in culture; conditions: for MIC: Staphylococcus aureus
# Experimental: as §1
# S. aureus RN4220 [3] = assay: Direct antimicrobial activity of ApoA-I and ApoA-II; assay type: cell-based, Staphylococcus aureus; conditions: up to 300 or 600 µg ml^−1; purified bovine and human proteins
# Experimental: as §1
# S. aureus = assay: Lysocin E antimicrobial activity-enhancing activity (1 unit decreases the MIC of lysocin E to 1 µg ml−1); assay type: cell-based, Staphylococcus aureus; conditions: ApoA species
# Experimental: Calf serum (10 ml) was added to 15 ml EtOH (60% v/v) and the mixture was centrifuged for 15 min. The collected supernatant was evaporated and suspended in 8 ml Milli-Q water (fraction [fr.] II). Fr. II with formic acid (0.1%) was applied to 10 ml of ODS resin (Waters Corporation, Milford, MA, USA). After washing with 25% EtOH and then 50% EtOH, the resin was eluted with 75% EtOH containing 0.1% formic acid. The eluted sample was evaporated and dissolved in 0.8 ml buffer A (10 mM phosphate buffer [pH 7.1], 6 M urea; Fr. III). Fr. III was applied to the Superose 12 10/300 GL gel filtration column (GE Healthcare) and eluted with the AKTApurifier system (GE Healthcare). The elution was performed in buffer A at a flow rate of 0.5 ml min^−1 and 60 fractions (0.5 ml per fr.) were collected in 2-ml tubes. All fractions, except for Fr. I, were dialysed in 10 mM phosphate buffer (pH 7.1) before assessment of their activities. Protein concentrations were measured using Coomassie Plus^TM protein assay reagent (Thermo Fisher) with bovine serum albumin as the standard. Amino acid sequence analysis was performed by in-gel digestion and mass spectrometric analysis. One unit was defined as the activity that decreases the MIC of lysocin E to 1 µg ml^−1.
# S. aureus ∆menA strain = assay: MIC by microdilution in TSB; assay type: cell-based, Staphylococcus aureus; conditions: TSB medium; two independent experiments
# Experimental: as §1
# S. aureus ∆menB strain = assay: MIC by microdilution in TSB; assay type: cell-based, Staphylococcus aureus; conditions: TSB medium; two independent experiments
# Experimental: as §1
# rhApoA-I = target: T1, rhApoA-I (Homo sapiens, UniProt P02647); assay: rhApoA-I pull-down assay (antimicrobial bound to rhApoA-I, UPLC-MS); assay type: binding; set-up: unit not given here
# T1 construct: 1 65 146 160 185 243; made in house; host or cells: E. coli BL21(DE3)/pLysS, pET20b (pET-hApoWT)
# T1 sequence (P02647 25-267): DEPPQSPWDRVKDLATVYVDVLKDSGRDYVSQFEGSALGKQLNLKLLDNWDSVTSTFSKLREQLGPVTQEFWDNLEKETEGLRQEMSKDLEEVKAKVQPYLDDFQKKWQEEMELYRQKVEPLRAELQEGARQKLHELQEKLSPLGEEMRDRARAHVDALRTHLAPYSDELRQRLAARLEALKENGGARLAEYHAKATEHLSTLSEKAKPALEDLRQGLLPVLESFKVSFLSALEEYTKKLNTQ
# Experimental: Menaquinone 4 (MK-4; 100 µl of 1.25 mM) was mixed with N-dodecyl β-D-maltoside (250 µl of 100 mM) in the presence or absence of purified lipid II or lipids (300 µl of 70 µM). Lipid II fraction was prepared from S. aureus RN4220 treated with moenomycin, followed by park nucleotide removal. The mixture was dried in vacuo and dissolved in 2 ml of water. The micelles were then filtered through a 0.45-µm polyvinylidene difluoride membrane filter and a 200 µl aliquot of the filtered micelles were used to evaluate the binding of the antimicrobials in the presence of rhApoA-I. Briefly, 5 µg of antimicrobials was added to the aliquots and the mixture was incubated for 15 min on ice in the presence of 4 µg rhApoA-I. The mixture was then transferred to His-Tag magnetic beads (Dynabeads, Thermo Fisher). The bound protein was then eluted with 250 mM imidazole and then eluted antimicrobials were quantified using an ACQUITY ultra-performance liquid chromatography (UPLC) H-Class PLUS attached to Xevo G2-XS QTof system (Waters Corporation). After injecting the sample into a 2.1 × 100 mm Acquity UPLC HSS T3 1.8 μm column (Waters Corporation) equilibrated with 0.3 mL min^–1 of 30% acetonitrile and 0.1% formic acid in water, the column was developed with a linear gradient to 60% acetonitrile and 0.1% formic acid in water over 10 min. The eluate was continuously applied to a Waters Xevo G2-XS QTof mass spectrometer and the spectra were obtained using MassLynx 4.1 (Waters Corporation) in electrospray ionisation (ESI)-positive mode that was analysed by UNIFI Scientific Information System ver. 1.9 (Waters Corporation).
compound,measurement,setting,value
"CCCCCCCCCC(=O)N[C@@H](Cc1c[nH]c2ccccc12)C(=O)N[C@H](CC(N)=O)C(=O)N[C@@H](CC(=O)O)C(=O)N[C@@H]1C(=O)NCC(=O)N[C@@H](CCCN)C(=O)N[C@@H](CC(=O)O)C(=O)N[C@H](C)C(=O)N[C@@H](CC(=O)O)C(=O)NCC(=O)N[C@H](CO)C(=O)N[C@@H]([C@H](C)CC(=O)O)C(=O)N[C@@H](CC(=O)c2ccccc2N)C(=O)O[C@@H]1C [Daptomycin, daptomycin]",Therapeutic effect (ED50),MRSA MR6 strain,0.73 mg/kg
same,"MIC, Control",S. aureus RN4220 [1],0.5 µg/mL
same,MIC +rhApoA-I relative to control (fold),S. aureus RN4220 [1],1/1
same,"MIC, +rhApoA-I 25µg ml-1",S. aureus RN4220 [1],0.5 µg/mL
same,"Protein binding (%, human plasma)",[2]; human plasma,90–96[52] %
same,Antimicrobial activity (MIC),MRSA,0.5 µg/mL
same,MIC in 10% bovine serum,MRSA,1 µg/mL
"CC(=O)NC[C@H]1CN(c2ccc(N3CCOCC3)c(F)c2)C(=O)O1 [Linezolid, linezolid]",Therapeutic effect (ED50),MRSA MR6 strain,3.8 mg/kg
same,"Protein binding (%, human plasma)",[2]; human,18[52] %
same,MIC,"MRSA; MRSA, read-out: Antimicrobial activity (MIC)",2 µg/mL
same,MIC,"MRSA; MRSA, read-out: MIC in 10% bovine serum",2 µg/mL
"CN[C@H](CC(C)C)C(=O)N[C@H]1C(=O)N[C@@H](CC(N)=O)C(=O)N[C@H]2C(=O)N[C@H]3C(=O)N[C@H](C(=O)N[C@H](C(=O)O)c4cc(O)cc(O)c4-c4cc3ccc4O)[C@H](O)c3ccc(c(Cl)c3)Oc3cc2cc(c3O[C@@H]2O[C@H](CO)[C@@H](O)[C@H](O)[C@H]2O[C@H]2C[C@](C)(N)[C@H](O)[C@H](C)O2)Oc2ccc(cc2Cl)[C@H]1O [Vancomycin, vancomycin]",Therapeutic effect (ED50),MRSA MR6 strain,4.2 mg/kg
same,"MIC, Control",S. aureus RN4220 [1],1 µg/mL
same,MIC +rhApoA-I relative to control (fold),S. aureus RN4220 [1],1/1
same,"MIC, +rhApoA-I 25µg ml-1",S. aureus RN4220 [1],1 µg/mL
same,"Protein binding (%, human plasma)",[2]; human plasma,10–50[51] %
same,MIC in 10% bovine serum,"MRSA; MRSA, 10% bovine serum in medium",1 µg/mL
same,Antimicrobial activity (MIC),"MRSA; MRSA, microdilution, no serum",1 µg/mL
ApoA-I: purified bovine and human apolipoprotein A-I,Inhibition of S. aureus growth by the protein alone,S. aureus RN4220 [3],did not inhibit S. aureus growth
ApoA-II: purified bovine and human apolipoprotein A-II,Inhibition of S. aureus growth by the protein alone,S. aureus RN4220 [3],did not inhibit S. aureus growth
hApoA-II: purified human ApoA-II (Calbiochem),Specific activity for lysocin E antimicrobial enhancing activity,S. aureus,5900 unit mg-1 protein
nisin (ITSISLCTPGCKTGALMGCNMKTATCHCSIHVSK),"MIC, Control",S. aureus RN4220 [1],8 µg/mL
same,MIC +rhApoA-I relative to control (fold),S. aureus RN4220 [1],1/4
same,"MIC, +rhApoA-I 25µg ml-1",S. aureus RN4220 [1],2 µg/mL
same,"MIC, Control",S. aureus RN4220 [1]; with lipid II 25 µg ml-1,> 32 µg/mL
same,"MIC, +rhApoA-I 25µg ml-1",S. aureus RN4220 [1]; with lipid II 25 µg ml-1,> 32 µg/mL
same,"Antimicrobial activity (MIC), WT","S. aureus RN4220 [1]; wild-type RN4220, TSB medium, two independent experiments",16
same,"Antimicrobial activity (MIC), ∆menA",S. aureus ∆menA strain,16
same,"Antimicrobial activity (MIC), ∆menB",S. aureus ∆menB strain,16
same,Nisin binding to rhApoA-I (pull-down),"rhApoA-I; CL, replicate 1",0.284
same,Nisin binding to rhApoA-I (pull-down),"rhApoA-I; CL, replicate 2",0.1757
same,Nisin binding to rhApoA-I (pull-down),"rhApoA-I; CL, replicate 3",0.257
same,Nisin binding to rhApoA-I (pull-down),"rhApoA-I; LTA, replicate 1",0.1611
same,Nisin binding to rhApoA-I (pull-down),"rhApoA-I; LTA, replicate 2",0.2119
same,Nisin binding to rhApoA-I (pull-down),"rhApoA-I; LTA, replicate 3",0.3298
same,Nisin binding to rhApoA-I (pull-down),"rhApoA-I; Lipid II, replicate 1",1.947
same,Nisin binding to rhApoA-I (pull-down),"rhApoA-I; Lipid II, replicate 2",4.556
same,Nisin binding to rhApoA-I (pull-down),"rhApoA-I; Lipid II, replicate 3",3.824
same,Nisin binding to rhApoA-I (pull-down),"rhApoA-I; PG, replicate 1",0.4181
same,Nisin binding to rhApoA-I (pull-down),"rhApoA-I; PG, replicate 2",0.2568
same,Nisin binding to rhApoA-I (pull-down),"rhApoA-I; PG, replicate 3",0.2266
same,Nisin binding to rhApoA-I (pull-down),"rhApoA-I; Vehicle (no lipid added), replicate 1",0.2456
same,Nisin binding to rhApoA-I (pull-down),"rhApoA-I; Vehicle (no lipid added), replicate 2",0.223
same,Nisin binding to rhApoA-I (pull-down),"rhApoA-I; Vehicle (no lipid added), replicate 3",0.2718
rhApoA-I: recombinant human ApoA-I,Specific activity for lysocin E antimicrobial enhancing activity,S. aureus,6500 unit mg-1 protein
